Laboratory results: patent publication US9334267B2, “RAF inhibitor compounds” (Deciphera Pharmaceuticals, LLC, priority 2012, dated 2016)

Assays:
Sk-Mel-2 cells = test: SK-Mel-2 cell proliferation assay (resazurin); format: cell-based; settings: Homo sapiens, N-Ras mutation B-Raf wild type, read-out: Cell Proliferation Inhibition IC50, nM SK-Mel-2
[1] = tested on: phospho-ERK in A375 (BRAF V600E) xenograft; test: A375 mouse xenograft pharmacodynamic assay (tumor phospho-ERK by ELISA); format: in vivo; settings: A375 xenografts in nude female mice, 20 mg/kg oral (gavage), vs vehicle
Procedure: To evaluate the in vivo pharmacodynamic (PD) effects of compounds of Formula I, an A375 (BRAF V600E) xenograft model is employed. Briefly, 10×10^6 A375 tumor cells (ATCC) are prepared in a 1:1 matrigel mix (0.2 mL total volume) and implanted by subcutaneous injection in hind leg of nude female mice. A total of 4 mice each for each dosing group are employed. Treatment is initiated with oral administration (gavage) of test compound or vehicle (20% captisol, 25 mM phosphate, pH2.0) in 0.2 mL volume when average tumor size reaches approximately 300 mg. After a fixed time interval, the tumors are harvested and the phospho-ERK levels are measured by ELISA (Enzyme-linked immunosorbent assay). Treated groups are compared to the vehicle control group to calculate % inhibition.

A375 cells = test: A375 cell proliferation assay (CellTiter-Blue/resazurin); format: cell-based; settings: Homo sapiens, A-375, V600E mutation, read-out: Cell Proliferation Inhibition IC50, nM A375
Procedure: (§1) A375 cells (catalog #CRL-1619) are obtained from the American Type Culture Collection (ATCC, Manassas, Va.). Briefly, cells are grown in DMEM High Glucose supplemented with 10% characterized fetal bovine serum (Invitrogen, Carlsbad, Calif.) and 1% Penicillin/Streptomycin/L-Glutamine at 37 degrees Celsius, 5% CO2, and 95% humidity. Cells are allowed to expand until reaching 70-95% confluency at which point they are subcultured or harvested for assay use. A serial dilution of test compound is dispensed into a 384-well black clear bottom plate in triplicate. Six hundred twenty-five cells are added per well in 50 μL complete growth medium in the 384-well plate. Plates are incubated for 67 hours at 37 degrees Celsius, 5% CO2, and 95% humidity. At the end of the incubation period, 10 μL of a 440 μM solution of resazurin (Sigma, St. Louis, Mo.) in PBS is added to each well of the plate and plates are incubated for an additional 5 hours at 37 degrees Celsius, 5% CO2, and 95% humidity. Plates are read on a Synergy2 reader (Biotek, Winooski, Vt.) using an excitation of 540 nm and an emission of 600 nm. Data is analyzed using Prism software (Graphpad, San Diego, Calif.) to calculate IC50 values.
(§2) The A375, HT-29, and Colo-205 cells (ATCC) harbor a V600E mutation.

HCT-116 cells = test: HCT-116 cell proliferation assay (resazurin); format: cell-based; settings: Homo sapiens, K-Ras mutation B-Raf wild type, read-out: Cell Proliferation Inhibition IC50, nM HCT-116
Colo205 cells = test: Colo-205 cell proliferation assay (resazurin); format: cell-based; settings: Homo sapiens; Colo-205 cells, V600E mutation; read-out: Cell Proliferation Inhibition IC50, nM Colo-205
Procedure: as §1, with “Colo205 cells” for “A375 cells”, “(catalog #HB-8307)” for “(catalog #CRL-1619)”, “in RPMI 1640” for “in DMEM High Glucose”, “Carlsbad, Calif.), 1 mM sodium pyruvate,” for “Carlsbad, Calif.)”, “reaching 30-60%” for “reaching 70-95%”, “triplicate. One thousand two-hundred fifty” for “triplicate. Six hundred twenty-five”
as §2

A375res cells [2] = test: Proliferation assay in vemurafenib-resistant melanoma cells A375res; settings: Homo sapiens, 72 h, read-out: absolute IC50 values
A375res cells [3] = tested on: A375res cells

| SMILES | IC50 (Sk-Mel-2 cells) [nM] | IC50 (A375 cells) [nM] | IC50 (HCT-116 cells) [nM] | IC50 (Colo205 cells) [nM] | IC50 (A375res cells [2]) [nM] | IC50 shift A375 to A375res (A375res cells [3]) | Measured pERK inhibition 2 h post dose [1] [% inhibition] |
| --- | --- | --- | --- | --- | --- | --- | --- |
| CNc1ncc2cc(-c3cc(NC(=O)NCCC(C)(C)F)c(F)cc3C)c(C)nc2n1 [Example 4, 1-(3-Fluoro-3-methylbutyl)-3-(2-fluoro-4-methyl-5-(7-methyl-2-(methylamino)pyrido[2,3-d]pyrimidin-6-yl)phenyl)urea] | 100 to 1000 | 100 to 1000 | 100 to 1000 | 100 to 1000 | 15 to 1100 | 0.6-1.9 fold | 84 |
| CNc1ncc2cc(-c3cc(NC(=O)NCCC(C)(C)F)c(F)cc3C)cnc2n1 [Example 34, 1-(3-Fluoro-3-methyl-butyl)-3-[2-fluoro-4-methyl-5-(2-methylaminopyrido[2,3-d]pyrimidin-6-yl)phenyl]urea] | 100 to 1000 | 100 to 1000 | 100 to 1000 | 100 to 1000 | 15 to 1100 | 0.6-1.9 fold | 72 |

Further lines, with some results ahead:

| IC50 (Sk-Mel-2 cells) [nM] | IC50 (A375 cells) [nM] | IC50 (HCT-116 cells) [nM] | IC50 (Colo205 cells) [nM] | IC50 (A375res cells [2]) [nM] | IC50 shift A375 to A375res (A375res cells [3]) | SMILES | Measured pERK inhibition 2 h post dose [1] [% inhibition] |
| --- | --- | --- | --- | --- | --- | --- | --- |
| 100 to 1000 | < 100 | 100 to 1000 | < 100 |  |  | CNc1ncc2cc(-c3cc(NC(=O)NCCC(C)(C)C)c(F)cc3F)c(C)nc2n1 [Example 1, 1-(2,4-Difluoro-5-(7-methyl-2-(methylamino)pyrido[2,3-d]pyrimidin-6-yl)phenyl)-3-(3,3-dimethylbutyl)urea] | 54 |
| < 100 | < 100 | 100 to 1000 | < 100 |  |  | CNc1ncc2cc(-c3ccc(F)c(NC(=O)NCCC(C)(C)C)c3)c(C)nc2n1 [Example 2, 1-(3,3-Dimethylbutyl)-3-(2-fluoro-5-(7-methyl-2-(methylamino)pyrido[2,3-d]pyrimidin-6-yl)phenyl)urea] | 38 |
| 100 to 1000 | < 100 | 100 to 1000 | < 100 |  |  | COCCNc1ncc2cc(-c3cc(NC(=O)NCCC(C)(C)C)c(F)cc3C)c(C)nc2n1 [Example 5, 1-(3,3-Dimethylbutyl)-3-(2-fluoro-5-(2-((2-methoxyethyl)amino)-7-methylpyrido[2,3-d]pyrimidin-6-yl)-4-methylphenyl)urea] | 77 |
